One data set relates to microbial growth. Briefly: single microbiological assay of the antimicrobial activity of the synthesized DMH/Ag complex. The class given is cell-based.
The subject of another data set is bacteria in the pool. Briefly: 32,000 gallon outdoor pool sanitized with FROG minerals, chlorine and DMH; bacteria monitored over three months. Particulars: about 10 ppm to 12 ppm DMH added to pool treated with FROG minerals (silver chloride on limestone carrier) and chlorine; free chlorine as low as 0.1 ppm; three month period. How it is done: A 32,000 gallon outdoor pool was sanitized using commercially available FROG™ minerals and chlorine. The FROG™ Minerals included silver chloride on a limestone carrier. In addition to the conventional sanitizing treatment using silver chloride and chlorine sufficient DMH was added to the pool to bring the DMH content of the pool to a level of about 10 ppm to 12 ppm DMH in the pool. The free chlorine, total chlorine, pH and the bacteria in the pool were monitored over a three month period. During the period both humans and animals swam in the pool.

Data set [1] can be described thus: levels of dissolved silver with halogenated hydantoins and a source of silver. In kind it is physicochemical. An excerpt:
Hydantoin structures are also known as complexing agents in silver-plating processes (R. J. Morrissey, U.S. Patent Application Publication no. 2005/0183961). […] While not fully understood it is believed that the aforementioned increased in solubility is due to a soluble complex or association between silver and hydantoin ring structures since it has been found the silver remains soluble to a higher degree than expected thus making more silver ions available for killing harmful microorganism.
DMH is a chemical derivative of hydantoin comprising of a hydantoin ring with two methyl groups attached at the number five position of the ring. DMH is a component of Bromochlordimethyl hydantoin (BCDMH), organic source bromine utilized for disinfecting spa water. […] Additional research performed by the Applicant seems to indicate that the DMH portion of the BCDMH molecule alone may be responsible for the increased solubility of silver. The mechanism of increased silver solubility appears to involve the formation of a DMH/silver complex that has a higher solubility in water than silver salts such as […] or silver chloride. It is should be noted that the antimicrobial activity tends to increase with soluble silver concentration.

For data set [2] the following is noted: cited from earlier work.
[3] abbreviates: used in conjunction with a source of silver.

Turning to “Silver dimethylhydantoin [synthesized DMH/Ag complex]”, the “antimicrobial activity compared to the equivalent level of silver used alone” value in the data set on microbial growth (synthesized complex) was “greater antimicrobial activity”. Besides, the “control of microbial growth” value in the data set with microbial growth (without added source of halide) is reported as “has the potential to control microbial growth without the need for an added source of halide”.
In the case of `CC1(C)NC(=O)NC1=O` [DMH, 5,5-dimethylhydantoin], the total bacteria count result with bacteria in the pool was “zero”.
`CC1(C)C(=O)N(Cl)C(=O)N1Cl` [DCDMH, 1,3 dichloro-5,5 dimethylhydantoin]: the “levels of dissolved silver” value in data set [1] (setting [3]) is on record as “tend to increase levels of dissolved silver”.
For the molecule `CC1(C)C(=O)N(Cl)C(=O)N1Br` [BCDMH, 1-bromo-3-chloro-5,5dimethylhydantoin], the “levels of dissolved silver” value in data set [1] (combined with silver ions in spa water containing bromine) is on record as “higher than would be anticipated”; in data set [1] (setting [3]), “tend to increase levels of dissolved silver”.
`O=C1CNC(=O)N1` [Hydantoin]: in data set [2], the solubility in water entry was “slightly soluble in water”.

Values taken from patent publication US9187351B2, “Water treatment” (KING TECHNOLOGY INC., priority 2004, dated 2015).
